Reference: paper PMC9959553, “Promising Antifungal Molecules against Mucormycosis Agents Identified from Pandemic Response Box®: In Vitro and In Silico Analyses” (Journal of Fungi, 2023)

Tested on: R. oryzae UCP1295
Test: Screening of the Pandemic Response Box library at 5 µM
Format: cell-based, Rhizopus oryzae
Conditions: 48 h, Table S1, mean of the four values
Experimental: Rhizopus oryzae UCP is the most prevalent Mucorales species in human infections and was used as a reference strain to screen the Pandemic Response Box® library. Screening was performed according to Rollin-Pinheiro and colleagues. Each compound was diluted in RPMI 1640 medium (Sigma Chemical Co., St. Louis, MO, USA), supplemented with 2% glucose and buffered with 3-(N-morpholino) propanesulfonic acid (MOPS) (Sigma Chemical Co., St. Louis, MO, USA) (0.165 mol/L, pH 7.2, from here on referred to as ‘supplemented RPMI’) to reach 5 μM in 96-well microtiter plates. Posaconazole (5 μM) and supplemented RPMI containing 1% DMSO were used as controls (both from Sigma Chemical Co., St. Louis, MO, USA). Conidia (2 × 10^5/mL) were added and incubated for 48 h at 37 °C in a 5% CO2 atmosphere. […] An inhibition of at least 60% was defined as the cut-off to select the promising drugs with antifungal activity against the Rhizopus species.

Compound	% of growth inhibition, Mean
Cc1ccc(S(=O)(=O)Nc2cccc3cccnc23)cc1 [MMV233495]	-0.4%
O=C(O)c1cc(-c2ccc(Br)cc2)nc2ccc(Cl)cc12 [MMV247764]	-8.6%
O=S(=O)(Nc1ccc(O)cc1)c1cccc2cccnc12 [MMV251679]	-4.7%
CCN1CCN(Cc2nc3ccc([N+](=O)[O-])cc3c(=O)n2-c2ccccc2F)CC1 [MMV275100]	-8.8%
Oc1ccc2[nH]c(-c3ccccc3)nc2c1 [MMV292173]	-15.4%
COc1ccc(CNC(=O)C(NS(=O)(=O)c2ccc3nc(C)sc3c2)C(C)C)cc1 (stereo not drawn) [MMV303733]	-8.6%
COC(=O)Nc1nc2ccccc2[nH]1 [MMV344625]	-13.3%
COc1ccc(NC(=O)c2cc3ccccn3n2)cc1 [MMV374187]	-18.8%
N=c1n(CCN2CCCCC2)c2ccccc2n1CC(O)COc1ccc(Cl)cc1Cl (stereo not drawn) [MMV394033]	-0.8%
Oc1cc(-c2cccc3ccccc23)[nH]n1 [MMV422940]	-11.7%
O=C(O)C(Cc1c[nH]c2ccccc12)N1C(=O)c2ccccc2C1=O (stereo not drawn) [MMV452821]	-16.1%
NC(=O)c1ccccc1NC(=O)c1ccc(C(=O)Nc2ccccc2C(N)=O)cc1 [MMV508427]	-9.9%
Oc1c(C(Nc2ccccn2)c2ccccc2)ccc2cccnc12 (stereo not drawn) [MMV565773]	-30.1%
O=C(c1cc(O)nc2ccccc12)N1CCN(c2ccccc2)CC1 [MMV596723]	-7.3%
COc1ccc(-n2cnc3cc(NCc4ccco4)ccc32)cc1 [MMV617332]	22.8%
CN(Cc1ccc(C(C)(C)C)cc1)Cc1cccc2ccccc12.Cl [MMV637104]	-30.4%
O=c1[nH]cnc2c1ncn2[C@H]1CC[C@@H](CO)O1 [MMV637306]	-2.1%
Nc1nc(F)nc2c1ncn2[C@@H]1O[C@H](CO)[C@@H](O)[C@@H]1O [MMV637413]	-6.9%
CCC(C)n1ncn(-c2ccc(N3CCN(c4ccc(OCC5COC(Cn6cncn6)(c6ccc(Cl)cc6Cl)O5)cc4)CC3)cc2)c1=O (stereo not drawn) [MMV637528]	-26.8%

Compound	% of growth inhibition, Mean
CC(=O)N1CCN(c2ccc(OC[C@@H]3CO[C@@](Cn4ccnc4)(c4ccc(Cl)cc4Cl)O3)cc2)CC1 [MMV637533]	-5.2%
CC1CCc2c(N3CCC(O)CC3)c(F)cc3c(=O)c(C(=O)O)cn1c23 (stereo not drawn) [MMV637659]	-19.1%
CC(N)C12CC3CC(CC(C3)C1)C2 (stereo not drawn) [MMV637855]	3.7%
CC(C)(C)NC(=O)[C@@H]1C[C@@H]2CCCC[C@@H]2CN1C[C@@H](O)[C@H](Cc1ccccc1)NC(=O)[C@H](CC(N)=O)NC(=O)c1ccc2ccccc2n1 [MMV637879]	25.0%
CC1(C)[C@H](C(=O)O)N2C(=O)C[C@H]2S1(=O)=O [MMV637945]	-27.5%
C=C(C)[C@@H]1CC[C@]2(C(=O)O)CC[C@]3(C)[C@H](CC[C@@H]4[C@@]5(C)CC[C@H](O)C(C)(C)[C@@H]5CC[C@]43C)[C@@H]12 [MMV638198]	43.5%
COC1CC2CCC(C)C(O)(O2)C(=O)C(=O)N2CCCCC2C(=O)OC(C(C)CC2CCC(OCCO)C(OC)C2)CC(=O)C(C)/C=C(\C)C(O)C(OC)C(=O)C(C)CC(C)/C=C/C=C/C=C/1C (stereo not drawn) [MMV639951]	-2.4%
O=C(O)c1ccc(-n2nc(-c3ccccc3O)nc2-c2ccccc2O)cc1 [MMV640014]	-17.8%
Cn1cncc1[C@@](N)(c1ccc(Cl)cc1)c1ccc2c(c1)c(-c1cccc(Cl)c1)cc(=O)n2C [MMV658803]	-24.4%
CC(C)=CCC/C(C)=C\CNCCNC1C2CC3CC(C2)CC1C3 (stereo not drawn) [MMV687273]	-3.3%
CCc1nc2ccc(Cl)cn2c1C(=O)NCc1ccc(N2CCC(c3ccc(OC(F)(F)F)cc3)CC2)cc1 [MMV687696]	-33.4%
C[C@H]1COc2c(N3CCN(C)CC3)c(F)cc3c(=O)c(C(=O)O)cn1c23 [MMV687798]	-8.6%
CC(C)N=c1cc2n(-c3ccc(Cl)cc3)c3ccccc3nc-2cc1Nc1ccc(Cl)cc1 [MMV687800]	-1.7%
CC[C@H](CO)NCCN[C@H](CC)CO [MMV687801]	-13.2%
O=[N+]([O-])c1cn2c(n1)OC[C@@H](OCc1ccc(OC(F)(F)F)cc1)C2 [MMV688755]	1.3%
CC(=O)NC[C@H]1CN(c2ccc(N3CCSCC3)c(F)c2)C(=O)O1 [MMV688756]	-8.2%
CC(=O)Oc1ccccc1C(=O)Nc1ncc([N+](=O)[O-])s1 [MMV688991]	5.4%
O=C(NCc1ncc(C(F)(F)F)cc1Cl)c1c(Cl)cccc1Cl [MMV689401]	-36.5%
COc1nc2ccc(Br)cc2cc1[C@@H](c1ccccc1)[C@@](O)(CCN(C)C)c1cccc2ccccc12 [MMV689758]	-19.9%

Compound	% of growth inhibition, Mean
Cc1cc(CCCOc2c(C)cc(-c3noc(C(F)(F)F)n3)cc2C)on1 [MMV690467]	-3.4%
COc1ccccc1CN[C@H]1C2CCN(CC2)[C@H]1C(c1ccccc1)c1ccccc1 [MMV690480]	-1.8%
Nc1nc(=O)c(Br)c(-c2ccccc2)[nH]1 [MMV690540]	-23.8%
CCOCc1nc2c(N)nc3ccccc3c2n1CC(C)(C)O [MMV690547]	-3.7%
FC(F)(F)c1cc(C(F)(F)F)c2ccc3nc(-c4nnco4)cn3c2n1 [MMV690555]	-25.6%
O=C(NC1CCCc2c1[nH]c1ccc(Cl)cc21)c1ccccn1 (stereo not drawn) [MMV690621]	-11.4%
COc1cccc(N2CCN(C3=Nc4c(F)cccc4[C@H](CC(=O)O)N3c3cc(C(F)(F)F)ccc3OC)CC2)c1 [MMV690653]	-6.7%
O=C(NO)C1(CS(=O)(=O)c2ccc(Oc3ccc(Cl)cc3)cc2)CCOCC1 [MMV690706]	-11.0%
CN(C)CCNC(=O)c1cccc2cccnc12 [MMV811071]	-21.7%
CCc1ccc(C2CC(C(F)(F)F)n3ncc(C(=O)NCc4ccc(OC)cc4)c3N2)cc1 (stereo not drawn) [MMV831201]	-4.6%
Nc1cc(-c2nc3ccccc3[nH]2)n[nH]c1=O [MMV975972]	0.3%
O=C1C=C(c2ccccc2)S(=O)(=O)c2ccccc21 [MMV1006203]	-8.8%
CC(C)Oc1cccc(NC(=O)c2ccccc2C(F)(F)F)c1 [MMV1009286]	-12.9%
O=C(c1ccc(F)cc1)N1CCN2C(=O)c3ccccc3C12c1ccccc1 (stereo not drawn) [MMV1165877]	-2.4%
CC(C)(C)c1ccc(Oc2ccc(N)cc2)cc1 [MMV1174026]	-12.8%
CC(C)(C)c1cc(CCC(=O)N2CCC2)cc(C(C)(C)C)c1O [MMV1229204]	-11.2%
O=C(NCc1ccccc1Cl)c1cnc2ccccc2n1 [MMV1230557]	-3.7%
O=C(NCc1ccc2c3c(cccc13)C(=O)N2)c1cccs1 [MMV1341773]	-28.3%
COc1c(F)c(F)cc2c(=O)c(C(=O)O)cn(C3CC3)c12 [MMV1480967]	-20.4%
